In one data set the target is GSK-3α/β. Nature of the data set: GSK-3 kinase assay (GS-1 peptide, 15 μM ATP). Type of data set: biochemical, porcine. As for the experimental part:
(§1) Blank values were subtracted and activities calculated as pmoles of phosphate incorporated for a 10 min. incubation. […] Controls were performed with appropriate dilutions of dimethylsulfoxide. In a few cases phosphorylation of the substrate was assessed by autoradiography after SDS-PAGE.
GSK-3α/β was either purified from porcine brain or expressed in and purified from insect Sf9 cells. […] ATP (3,000 Ci/mmol; 1 mCi/ml) in a final volume of 30 μl. After 30 min. incubation at 30° C., 25 μl aliquots of supernatant were spotted onto 2.5×3 cm pieces of Whatman P81 phosphocellulose paper, and, 20 sec. later, the filters were washed five times (for at least 5 min. each time) in a solution of 10 ml phosphoric acid/liter of water. The wet filters were counted in the presence of 1 ml ACS (Amersham) scintillation fluid.
(§2) Kinases were assayed as above described in the presence of increasing concentrations of aloisines.

A further data set addresses CDK5/p25 (Homo sapiens, UniProt Q00535). Nature of the data set: CDK5/p25 kinase assay (histone H1, 15 μM ATP). Type of data set: biochemical, mammalian. Particulars: Table 1. As for the experimental part:
as §1
CDK5/p25 was reconstituted by mixing equal amounts of recombinant mammalian CDK5 and p25 expressed in E. coli as GST (Glutathione-S-transferase) fusion proteins and purified by affinity chromatography on glutathione-agarose (p25 is a truncated version of p35, the 35 kDa CDK5 activator). Its activity was assayed in buffer C as described for CDK1/cyclin B.
as §2

For another data set, the target named is CDK1/cyclin B. Nature of the data set: CDK1/cyclin B kinase assay (histone H1, 15 μM ATP). Type of data set: biochemical, starfish (Marthasterias glacialis). Conditions: for IC50: 15 μM ATP, Table 1. As for the experimental part:
as §1
CDK1/cyclin B was extracted in homogenisation buffer from M phase starfish (Marthasterias glacialis) oocytes and purified by affinity chromatography on p9^CKShs1-sepharose beads, from which it was eluted by free p9^CKShs1. […] ATP (3,000 Ci/mmol; 1 mCi/ml) in a final volume of 30 μl. After 10 min. incubation at 30° C., 25 μl aliquots of supernatant were spotted onto P81 phosphocellulose papers and treated as described above.
as §2

Another data set has as its target c-Jun N-terminal kinase. Nature of the data set: Kinase selectivity panel. Type of data set: biochemical. Conditions: 15 μM ATP.
A further data set deals with Casein kinase 1. Nature of the data set: Kinase selectivity panel. Type of data set: biochemical. Conditions: 15 μM ATP.
For data set [1], the target named is Insulin receptor tyrosine kinase (Homo sapiens, UniProt P06213). Conditions: read-out: IC50 Insulin receptor tyrosine kinase; 15 μM ATP.
Source text: (§5) Other kinases were expressed, purified and assayed as described previously (9), (10).
Data set [2] has as its system NT2 cells. Nature of the data set: Exponential cell growth of NT2 cells. Conditions: figure legend FIGS. 4A to 4E. Type of data set: cell-based, human. How it is done: (§3) Clonal human NT2 teraterocarcinoma cells were obtained from Stratagene (La Jolla, Calif.) and grown in Dulbecco's Modified Eagle Medium: Nutrient Mixture F-12 with 2 mM L-Glutamine (BIO […]) supplemented with 5% FCS and containing penicillin (20 UI/ml) and streptomycin (20 μg/ml) at 37° C., in a humidified atmosphere containing 5% CO2 in air.
(§4) Exponentially growing cells were incubated for 24 h with aloisine A (stock solution dissolved in dimethylsulfoxide). Nocodazole treatment of cells was performed at a concentration of 0.04 μg nocodazole/ml of medium for 24 h. Following the nocodazole treatment, cells were washed twice with fresh medium and cultured with or without aloisine A for 24 h. To perform serum deprivation, cells were maintained in serum-free medium for 40 h. Following serum deprivation, cells were washed twice and cultured in fresh serum-containing medium with or without aloisine A for 40 h.
The formazan products were dissolved in DMSO and quantified by measurement of the absorbance at 562 nm.

The target of another data set is T1, protein kinase C η (Homo sapiens, UniProt P24723).
T1 construct: made in house
Nature of the data set: Kinase selectivity panel. Particulars: 15 μM ATP. Type of data set: biochemical.

A further data set addresses T2, CDK4/cyclin D1 (Homo sapiens, UniProt P11802).
T2 construct: made in house
Nature of the data set: Kinase selectivity panel. Particulars: 15 μM ATP. Type of data set: biochemical.

Another data set deals with Casein kinase 2. Nature of the data set: Kinase selectivity panel. It is filed as biochemical. Conditions: 15 μM ATP.
A further data set addresses T3, erk2 (Homo sapiens, UniProt P28482).
T3 construct: made in house
Nature of the data set: Kinase selectivity panel. Type of data set: biochemical. Conditions: 15 μM ATP.

The target of another data set is MAPKK. Nature of the data set: Kinase selectivity panel. Particulars: 15 μM ATP. It is filed as biochemical.
Data set [3] has as its system NT2 cells. Nature of the data set: Cell cycle analysis by flow cytometry. Type of data set: cell-based, human. How it is done:
as §3, §4
Cells were trypsinised, collected by centrifugation and fixed in cold 70% ethanol for at least 4 h. Fixed cells were washed in PBS, incubated with 10 μg RNAse A/ml and stained with 25 μg propidium iodide/ml for 1 h at 37° C. The stained cells were then analysed for cell cycle distribution on a FACSort flow cytometer (Becton Dickinson). Cell cycle analyses were performed multiCYCLE (18).
The effect of aloisine A on the cell cycle distribution was investigated for NT2 cells by flow cytometry. Unsynchronised cells (FIG. 4E) were exposed to 20 μM aloisine A for 40 h (FIG. 4F).
The effects of aloisine A on NT2 cells synchronized either in G0/G1 by serum deprivation or in G2/M by nocodazole treatment was also investigated. The results are given on FIG. 4: the cell cycle phase distribution was analysed by flow cytometry following propidium iodide staining. (A, B, C). NT2 cells were synchronized by serum deprivation for […] (A), then cultured for 40 h in fresh medium without (B) or with 20 μM aloisine A (C). (D, E, F). NT2 cells were synchronized by nocodazole treatment ([…]) for 24 h (D), then cultured for 40 h in fresh medium without (E) or with 20 μM aloisine A (F).
On the technique in general: Flow cytometry measures light scatter and fluorescence of single cells or particles in a stream.

The next data set addresses T4, erk1 (Homo sapiens, UniProt P27361).
T4 construct: made in house
Nature of the data set: Kinase selectivity panel. Type of data set: biochemical. Conditions: 15 μM ATP.

[4] abbreviates: 15 μM ATP, Table 1, read-out: IC50 GSK-3.

Read-outs that look alike come from different tables or passages of the source. A value given as a limit tells only on which side of the number the result lay.

Chain of CDK5/p25 (Q00535 whole entry, species assumed): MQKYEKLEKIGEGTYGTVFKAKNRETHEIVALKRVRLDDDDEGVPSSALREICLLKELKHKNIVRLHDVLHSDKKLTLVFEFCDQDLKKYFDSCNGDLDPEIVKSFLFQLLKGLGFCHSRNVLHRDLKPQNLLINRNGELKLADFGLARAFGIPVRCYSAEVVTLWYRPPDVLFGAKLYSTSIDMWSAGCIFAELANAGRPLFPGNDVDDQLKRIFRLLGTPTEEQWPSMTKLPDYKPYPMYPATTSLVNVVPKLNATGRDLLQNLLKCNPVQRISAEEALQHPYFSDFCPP
Chain of CDK5/p25 (Q15078 99-307 partner limits assumed, species assumed): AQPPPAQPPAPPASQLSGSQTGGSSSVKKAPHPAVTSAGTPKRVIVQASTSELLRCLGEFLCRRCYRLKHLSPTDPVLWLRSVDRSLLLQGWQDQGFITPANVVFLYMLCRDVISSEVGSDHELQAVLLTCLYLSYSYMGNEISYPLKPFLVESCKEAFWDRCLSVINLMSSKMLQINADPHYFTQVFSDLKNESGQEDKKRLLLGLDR
T3 sequence (P28482 whole entry, species assumed): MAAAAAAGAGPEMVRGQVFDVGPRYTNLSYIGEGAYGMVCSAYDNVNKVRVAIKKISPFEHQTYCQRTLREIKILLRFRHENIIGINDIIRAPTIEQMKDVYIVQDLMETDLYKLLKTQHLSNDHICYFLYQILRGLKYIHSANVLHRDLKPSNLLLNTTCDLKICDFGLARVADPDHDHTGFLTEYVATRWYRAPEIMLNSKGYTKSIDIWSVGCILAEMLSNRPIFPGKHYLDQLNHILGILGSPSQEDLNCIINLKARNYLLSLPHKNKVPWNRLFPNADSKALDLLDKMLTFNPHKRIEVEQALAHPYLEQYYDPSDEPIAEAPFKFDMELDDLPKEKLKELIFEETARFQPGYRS
T1 sequence (P24723 whole entry): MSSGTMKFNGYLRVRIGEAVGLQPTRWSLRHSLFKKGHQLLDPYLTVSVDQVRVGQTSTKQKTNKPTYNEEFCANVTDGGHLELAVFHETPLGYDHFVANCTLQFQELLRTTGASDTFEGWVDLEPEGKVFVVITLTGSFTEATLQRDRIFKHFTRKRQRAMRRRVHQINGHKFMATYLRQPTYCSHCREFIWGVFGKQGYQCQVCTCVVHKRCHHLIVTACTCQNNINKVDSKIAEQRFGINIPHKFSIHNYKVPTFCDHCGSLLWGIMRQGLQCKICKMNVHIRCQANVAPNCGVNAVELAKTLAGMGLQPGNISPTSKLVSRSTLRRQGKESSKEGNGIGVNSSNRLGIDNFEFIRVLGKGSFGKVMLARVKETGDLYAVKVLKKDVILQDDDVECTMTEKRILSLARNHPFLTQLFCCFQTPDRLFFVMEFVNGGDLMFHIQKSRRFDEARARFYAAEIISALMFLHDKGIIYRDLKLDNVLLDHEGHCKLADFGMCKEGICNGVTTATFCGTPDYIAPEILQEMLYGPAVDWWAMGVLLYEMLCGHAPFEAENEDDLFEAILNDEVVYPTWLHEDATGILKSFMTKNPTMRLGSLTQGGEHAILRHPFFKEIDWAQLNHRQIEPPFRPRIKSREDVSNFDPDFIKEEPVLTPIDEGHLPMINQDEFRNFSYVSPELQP
Chain of Insulin receptor tyrosine kinase (P06213 28-1382): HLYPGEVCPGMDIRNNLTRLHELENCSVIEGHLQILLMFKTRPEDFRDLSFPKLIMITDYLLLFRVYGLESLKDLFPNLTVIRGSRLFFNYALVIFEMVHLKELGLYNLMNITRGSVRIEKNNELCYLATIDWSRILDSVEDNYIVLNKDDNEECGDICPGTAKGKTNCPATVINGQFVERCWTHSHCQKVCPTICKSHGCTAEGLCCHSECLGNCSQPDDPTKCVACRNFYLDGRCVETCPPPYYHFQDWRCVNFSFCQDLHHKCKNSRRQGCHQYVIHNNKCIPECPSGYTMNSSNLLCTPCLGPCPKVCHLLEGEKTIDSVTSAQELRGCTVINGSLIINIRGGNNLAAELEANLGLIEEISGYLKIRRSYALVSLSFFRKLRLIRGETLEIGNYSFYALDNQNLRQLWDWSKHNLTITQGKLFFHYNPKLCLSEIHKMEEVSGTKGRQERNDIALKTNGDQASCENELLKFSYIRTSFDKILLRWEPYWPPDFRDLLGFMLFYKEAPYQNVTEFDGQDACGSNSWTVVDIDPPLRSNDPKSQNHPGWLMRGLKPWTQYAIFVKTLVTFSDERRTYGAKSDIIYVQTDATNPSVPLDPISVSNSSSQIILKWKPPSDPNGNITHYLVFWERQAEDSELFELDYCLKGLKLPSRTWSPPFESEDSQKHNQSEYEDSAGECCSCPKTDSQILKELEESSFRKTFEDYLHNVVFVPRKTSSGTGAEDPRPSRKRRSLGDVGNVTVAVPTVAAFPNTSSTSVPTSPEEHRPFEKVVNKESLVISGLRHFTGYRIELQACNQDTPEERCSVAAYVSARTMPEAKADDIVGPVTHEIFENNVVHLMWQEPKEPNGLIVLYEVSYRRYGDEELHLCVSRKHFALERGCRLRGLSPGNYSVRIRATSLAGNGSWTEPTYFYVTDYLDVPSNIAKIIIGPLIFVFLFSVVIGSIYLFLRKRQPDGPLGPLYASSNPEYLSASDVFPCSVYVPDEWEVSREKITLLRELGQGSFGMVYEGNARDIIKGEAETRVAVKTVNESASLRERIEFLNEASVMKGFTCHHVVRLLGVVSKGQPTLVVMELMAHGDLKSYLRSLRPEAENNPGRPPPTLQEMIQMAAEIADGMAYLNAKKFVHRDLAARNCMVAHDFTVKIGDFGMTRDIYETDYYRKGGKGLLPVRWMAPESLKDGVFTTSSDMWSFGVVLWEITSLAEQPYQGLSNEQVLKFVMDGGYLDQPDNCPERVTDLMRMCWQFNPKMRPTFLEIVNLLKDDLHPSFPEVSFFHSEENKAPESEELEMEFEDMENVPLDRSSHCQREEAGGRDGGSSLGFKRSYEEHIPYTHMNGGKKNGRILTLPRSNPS
T2 sequence (P11802 whole entry, species assumed): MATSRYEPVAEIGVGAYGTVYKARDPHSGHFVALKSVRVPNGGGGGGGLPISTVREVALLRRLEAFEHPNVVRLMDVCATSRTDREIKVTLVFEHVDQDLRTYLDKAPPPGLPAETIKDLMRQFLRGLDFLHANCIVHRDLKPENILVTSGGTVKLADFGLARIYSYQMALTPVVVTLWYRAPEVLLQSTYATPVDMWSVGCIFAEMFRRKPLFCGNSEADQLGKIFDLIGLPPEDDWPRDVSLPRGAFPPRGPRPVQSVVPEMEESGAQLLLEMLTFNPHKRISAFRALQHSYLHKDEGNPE
T2 sequence (P24385 whole entry partner, species assumed): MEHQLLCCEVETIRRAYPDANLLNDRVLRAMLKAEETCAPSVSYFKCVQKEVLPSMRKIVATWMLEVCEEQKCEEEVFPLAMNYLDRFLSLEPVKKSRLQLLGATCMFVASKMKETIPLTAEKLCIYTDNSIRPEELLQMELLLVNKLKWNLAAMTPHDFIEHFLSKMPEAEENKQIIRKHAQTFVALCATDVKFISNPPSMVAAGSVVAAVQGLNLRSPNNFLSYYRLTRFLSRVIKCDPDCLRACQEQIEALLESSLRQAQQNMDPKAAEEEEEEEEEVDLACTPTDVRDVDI
T4 sequence (P27361 whole entry, species assumed): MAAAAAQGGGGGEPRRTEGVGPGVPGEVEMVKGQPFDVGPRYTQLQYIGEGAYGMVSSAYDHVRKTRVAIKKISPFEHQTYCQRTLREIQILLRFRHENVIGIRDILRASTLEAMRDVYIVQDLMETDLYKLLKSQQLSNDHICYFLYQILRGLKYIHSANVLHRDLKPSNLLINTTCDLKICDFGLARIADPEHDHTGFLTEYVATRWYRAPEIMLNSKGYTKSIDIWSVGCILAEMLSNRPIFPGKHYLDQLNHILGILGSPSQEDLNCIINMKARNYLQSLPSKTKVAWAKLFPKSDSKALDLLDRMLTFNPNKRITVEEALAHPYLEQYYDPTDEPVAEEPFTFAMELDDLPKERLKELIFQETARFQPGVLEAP
Source text for CDK4/cyclin D1: as §5
Source text for Casein kinase 1: as §5
Source text for Casein kinase 2: as §5
Source text for MAPKK: as §5
Source text for c-Jun N-terminal kinase: as §5
Source text for erk1: as §5
Source text for erk2: as §5
Source text for protein kinase C η: as §5

By melting point is commonly meant the temperature of the solid-liquid transition. `c1csc(-c2cc3nccnc3[nH]2)c1` [2 (RP6), 6-(2-Thienyl)[5H]pyrrolo[2,3-b]pyrazine] displayed a melting point of 260.3 °C. On GSK-3α/β (setting [4]), the IC50 came to 1.2 µM. Further, on CDK5/p25, the IC50 came out at 2 µM. Also, the IC50 at CDK1/cyclin B is 7 µM.

On to `c1cnc2[nH]c(-c3ccsc3)cc2n1` [3 (RP128)], for which the melting point is 230 °C (dec.). For the same molecule, the IC50 on GSK-3α/β (setting [4]) was determined as 0.8 µM. The molecule also came in with an IC50 against CDK5/p25 of 1 µM. Further, at CDK1/cyclin B, the IC50 is 2.3 µM.

For the molecule `c1ccc(-c2cc3nccnc3[nH]2)nc1` [4 (RP13), 6-(2-Pyridyl)[5H]pyrrolo[2,3-b]pyrazine], the melting point stood at 233.1 °C. The IC50 at GSK-3α/β (setting [4]) stood at 15 µM. The molecule further had an IC50 on CDK5/p25 of 53 µM. On CDK1/cyclin B, this molecule registered an IC50 of 21 µM.

Consider `c1ccc(-c2cc3nccnc3[nH]2)cc1` [5 (RP7), 6-Phenyl[5H]pyrrolo[2,3-b]pyrazine], for which the melting point was 216 °C. Further, the IC50 at GSK-3α/β (setting [4]) turned out to be 2.3 µM. In addition, the IC50 against CDK5/p25 turned out to be 4 µM. Besides, the IC50 at CDK1/cyclin B amounted to 5 µM.

In the case of `Br.Oc1ccccc1-c1cc2nccnc2[nH]1` [11 (RP109), 6-(2-Hydroxyphenyl)[5H]pyrrolo[2,3-b]pyrazine hydrobromide], the melting point is 250 °C (dec.). The IC50 at GSK-3α/β (setting [4]) was 6.5 µM. This molecule had an IC50 against CDK5/p25 of 3 µM. The molecule further returned an IC50 on CDK1/cyclin B of 2.5 µM.

With `COc1ccc(-c2cc3nccnc3[nH]2)cc1` [14 (RP11), 6-(4-Methoxyphenyl)[5H]pyrrolo[2,3-b]pyrazine], the melting point is 256.1 °C (dec.). At GSK-3α/β (setting [4]), the IC50 was 1.1 µM. The same molecule showed an IC50 against CDK5/p25 of 4 µM. Moreover, the IC50 on CDK1/cyclin B stood at 2 µM.

On to `Clc1cc(Cl)cc(-c2cc3nccnc3[nH]2)c1` [20 (RP15), 6-(3,5-Dichlorophenyl)[5H]pyrrolo[2,3-b]pyrazine], for which the melting point is 252 °C (dec.). Moreover, on GSK-3α/β (setting [4]), the IC50 was above 100 µM. The molecule further gave an IC50 on CDK5/p25 above 100 µM. For the same molecule, the IC50 against CDK1/cyclin B is above 100 µM.

As to `FC(F)(F)c1ccc(-c2cc3nccnc3[nH]2)cc1` [22 (RP8), 6-(4-Trifluoromethylphenyl)[5H]pyrrolo[2,3-b]pyrazine], the melting point is 238 °C (dec.). For the same molecule, the IC50 on GSK-3α/β (setting [4]) came out at 7.2 µM. Besides, on CDK5/p25, the IC50 is above 100 µM. Further, the IC50 at CDK1/cyclin B is 6 µM.

Consider `CN(C)c1ccc(-c2cc3nccnc3[nH]2)cc1` [26 (RP129), 6-(4-Dimethylaminophenyl)[5H]pyrrolo[2,3-b]pyrazine], for which the melting point was 271 °C (dec.). Also, the IC50 on GSK-3α/β (setting [4]) stood at 12 µM. On CDK5/p25, this molecule had an IC50 above 100 µM. The molecule further gave an IC50 against CDK1/cyclin B of 20 µM.

Take `CCCCc1c(-c2ccc(O)cc2)[nH]c2nccnc12` [39 (RP107)]: the IC50 on c-Jun N-terminal kinase was 3.3 to 10 µM; at GSK-3α/β (text summary of selectivity, read-out: IC50 GSK-3α/β) it was […]; against Casein kinase 1, above 100 µM; in data set [1], 60 µM; on protein kinase C η, above 100 µM; at CDK4/cyclin D1, above 100 µM. Further, the IC50 on Casein kinase 2 is above 100 µM; at erk2 it was 22 µM; on MAPKK, above 100 µM; against erk1 it was 18 µM. Moreover, the Exponential cell growth entry in the data set on NT2 cells [2] is “reversible inhibition of exponential cell growth”. Further, the “Mechanism of inhibition versus ATP, CDK1/cyclin B” value in the data set with CDK1/cyclin B (ATP 0.1 to […], histone H1 0.7 mg/ml, double reciprocal plots) is “competitive inhibitor for ATP”. In addition, the “Cell cycle distribution, unsynchronised cells” value with NT2 cells [3] (NT2 cells, 20 μM for 40 h) is “accumulation in G2/M phase”. Moreover, the “Cell cycle distribution after G2/M synchronisation by nocodazole” value with NT2 cells [3] (NT2 cells, 20 μM for 40 h after nocodazole withdrawal) is given as “remained in G2/M”. Also, the “Cell cycle distribution after G0/G1 synchronisation by serum deprivation” value in the data set on NT2 cells [3] (NT2 cells, serum-enriched medium with 20 μM for 40 h) is given as “remained essentially in G0/G1”. Also, the Signs of apoptosis entry in the data set with NT2 cells [3] (unsynchronised NT2 cells, 20 μM for 40 h) is “No signs of apoptosis were detectable”.

As for `CCCCc1c(-c2ccc(Cl)cc2)[nH]c2nccnc12` [40 (RP108), 7-n-Butyl-6-(4-chlorophenyl)[5H]pyrrolo[2,3-b]pyrazine], the melting point stood at 200 °C. In addition, the IC50 at GSK-3α/β (setting [4]) was found to be 5.9 µM. The IC50 at CDK5/p25 was above 100 µM. At CDK1/cyclin B, this molecule registered an IC50 of 0.2 µM.

With `CCCCCCCc1c(-c2ccc(OC)cc2)[nH]c2nccnc12` [41 (RP111), 7-n-Heptyl-6-(4-methoxyphenyl)[5H]pyrrolo[2,3-b]pyrazine], the melting point is 132.5 °C. For the same molecule, the IC50 on GSK-3α/β (setting [4]) was above 10 µM. This molecule also came in with an IC50 against CDK5/p25 above 100 µM. The molecule also yielded an IC50 on CDK1/cyclin B of 7 µM.

Take `c1ccc(Cc2c(-c3ccccc3)[nH]c3nccnc23)cc1` [44 (RP92), 7-Benzyl-6-phenyl[5H]pyrrolo[2,3-b]pyrazine]: the melting point came out at 209.8 °C. Further, the IC50 on GSK-3α/β (setting [4]) is 1 µM. At CDK5/p25, this molecule came in with an IC50 above 100 µM. Further, the IC50 on CDK1/cyclin B worked out at 2 µM.

(Values after patent US8106050B2, “Derivatives of pyrrolo-pyrazines having a kinase inhibitory activity and their biological applications” (Centre National de la Recherche Scientifique (C.N.R.S.), priority 2002, dated 2012).)
